From patent US20250356957A1, “EMULATOR OF SUBCUTANEOUS ABSORPTION AND RELEASE” (UNIVERSITY OF KANSAS, priority 2022, published 2025)

Experiment: ESCAR drug release tests for acetaminophen solution (factor screening)
Type: in vitro ADME
Settings: center position injection, 10 mg/mL solution
Protocol: Acetaminophen solution (10 mg/mL) and the subcutaneous chamber (Version 1; FIG. 2C) were used across different runs. Both the “lymphatic circulation” and “blood circulation” chambers were filled with 75 mL of PBS (pH 7.4), and the subcutaneous chamber was filled with 2.8 mL of HA/PBS solution. At the surrounding areas of the interfaces, a layer of mounting tape was assembled to prevent liquid leakage. Sequentially, the “subcutaneous”/“blood circulation” interface was assembled with a SpectraPor® dialysis membrane (MWCO: 50 kDa), and the “subcutaneous”/“lymphatic circulation” interface was assembled with a SpectraPor® dialysis membrane (MWCO: 300 kDa). All membranes were pre-soaked in DI water for at least 1 h before use. The drug release tests were conducted at 34° C. in a convective oven, with mild magnetic stirring in the “blood circulation” and “lymphatic circulation” chambers. […] A 18-run full factorial experimental design was employed to evaluate three factors, HA concentration (three levels: 2.5, 5, 10 mg/mL), injection volume (three levels: 0.25, 0.5, 1 mL), and injection position/needle tip position to the membrane at the “subcutaneous”/“blood circulation” interface (two levels: 0.2, 0.5 cm). At the pre-set time points, 1.5 mL of aliquots were withdrawn from the “blood circulation” chamber with the replacement of the same volume of PBS. Each run was conducted in triplicate.

**Q.** With `CC(=O)Nc1ccc(O)cc1` [acetaminophen, Acetaminophen] as the compound, how does the “release fraction (%) at 8-hr” value (2.5 mg/mL HA solution) read?
**A.** The value was about 60%.

**Q.** And the “release fraction (%) at 8-hr” value (5 mg/mL HA solution)?
**A.** Its value is about 30%.

**Q.** And the “release fraction (%) at 8-hr” value (10 mg/mL HA solution)?
**A.** Its value is about 15%.

**Q.** And the “release fraction (%) at 8-hr” value (subcutaneous medium PBS)?
**A.** Its value is about 80%.
